# Results published in publication PMC11116102, “A naturally occurring variant of SHLP2 is a protective factor in Parkinson’s disease” (Molecular Psychiatry, 2024).
# No end group written: not given here.
# Tests used:
# [1] = tested on: dopamine levels in the striatum; assay: Striatal dopamine in MPTP-lesioned mice (HPLC with electrochemical detection); assay type: in vivo; settings: C57BL/6 mice, MPTP 20 mg/kg, n = 8 per group
# Description: C57BL/6 male mice, 8 to 10 weeks of age were purchased from Jackson Labs (Bar Harbor, Maine). 1-methyl-4- phenyl- 1,2,3,6-tetrahydropyridine (MPTP) (Selleck Chemicals Co., Houston, TX) was prepared to a concentration of […] free-base in 0.9% saline on the day of use. C57BL/6 mice were injected with 20 mg/kg free-base MPTP. 8 days after the last injection of MPTP, mice were killed by cervical dislocation and the brain quickly removed and placed on wet ice. Striatal tissues for HPLC analysis and western immunoblotting were collected fresh corresponding to anatomical regions from bregma 1.20 to bregma 0.60, with borders dorsal to the anterior commissure, ventral to the corpus callosum, medial to the lateral ventricle, and 2.5 mm lateral from midline, and frozen at -80 °C until analysis. All procedures utilizing MPTP lesioning and tissue collection were approved by the USC IACUC.
# Dopamine concentrations were determined according to an adaptation of Irwin et al. from the method of Kilpatrick et al.. […] The protein pellet was resuspended in 0.5 N NaOH and the total protein concentration determined using the BCA Protein Assay (Pierce, Rockford, IL), a Biotek Model Elx800 microplate reader (Biotek Instruments, Wincoski, VT) and KCjunior software. […]
# [2] = tested on: HeLa expressing HA- EGFP- OMP25 (HA-MITO); assay: Rapid mitochondria immunoprecipitation, localization of synthetic SHLP2; assay type: cell-based; settings: synthetic SHLP2 treatment, western blot
# Description: Mitochondria isolation from HeLa cells expressing HA-EGFP-OMP25 (HA-MITO) or myc-EGFP-OMP25 (CON-MITO) was performed according to the published article. Briefly, cells were lysed in KPBS buffer (136 mM KCl, 10 mM KH2PO4, pH 7.25) and homogenized with 25 strokes of a 2 ml homogenizer. The homogenate was spun down at 1000 g for 2 min. The supernatant was incubated with anti-HA magnetic beads on an end-over-end rotator for 3.5 min. The beads were washed with KPBS buffer, incubated for 10 min with lysis buffer (1% triton X-100 lysis buffer with protease inhibitor cocktail), and spun down at 17000 g for 10 min. The supernatants were used for western blot.
# [3] = tested on: HEK293 cells; assay: Cycloheximide pulse-chase protein stability; assay type: cell-based; settings: HEK293 transiently transfected with C-terminal EGFP-tagged construct; 100ug/ml cycloheximide for the indicated time; western blot, Image J; n = 3/per group
# Description: Cells were lysed with RIPA Lysis and Extraction Buffer (ThermoFisher Scientific) plus the Halt protease & phosphatase inhibitor cocktail (ThermoFisher Scientific). The lysates were incubated on ice for 10 min then homogenized using a sonicator, and the supernatant was collected by centrifugation at 15,000 x g for 15 min at 4 °C. Protein content in the cellular lysates was quantified using the Pierce™ BCA Protein Assay Kit (ThermoFisher Scientific). Predetermined amounts of proteins (10-30μg) were separated on 8-16% SDS-PAGE gels and blotted onto PVDF membranes (Biorad, Hercules, CA, USA). Membranes were incubated with primary antibody at 4 °C overnight according to the manufacturer’s instructions. After several washes with Tris-buffered saline containing 0.1% Tween-20, membranes were incubated at room temperature for 1 hr with the appropriate HRP-conjugated secondary antibody. Clarity™ Western ECL substrate (Biorad) was used for detecting specific bands. Membranes were imaged on a Bio-Rad ChemiDoc XRS^+ imager. If necessary, relative intensities of the bands in each condition were measured using Image J, a free software program provided by National Institute of Health (Bethesda, Maryland, USA).
# Cycloheximide, an inhibitor of protein biosynthesis, was used to examine protein stability in cells. […] The protein quantity from western blot was examined with Image J.
compound,measurement,setting,value
"CN1CC=C(c2ccccc2)CC1 [MPTP, 1-methyl-4-phenyl-1,2,3,6-tetrahydropyridine]","dopamine levels in the striatum, toxin alone",[1],significant decrease in dopamine levels
MGVKFFTLSTRFFPSVQRAVPLWTNS [WT SHLP2],mitochondrial localization of synthetic peptide,[2],localized in the mitochondria after 30 min of treatment
MGVRFFTLSTRFFPSVQRAVPLWTNS [K4R SHLP2],"protein stability, pulse-chase",[3],more stable than WT SHLP2
